Experimental data taken from US20070027150A1 (priority 2005, published 2007).

Biological target: His-tagged N-terminal ATP binding domain (amino acid residues 9-236) of HSP90α (Homo sapiens, UniProt P07900)
Experiment: HSP90 inhibitor binding potency: TRF competition binding assay
Conditions: Table I; read-out: Hsp90 IC50 Range
How it was run: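 His-tagged HSP90α N-domain (residues 9-236) incubated 2 h at room temperature with biotinylated radicicol and increasing compound in 50 mM HEPES, 6 mM MgCl2, 20 mM KCl, 0.1% BSA. Bound tracer captured on streptavidin plates, detected with europium anti-His antibody by time-resolved fluorescence; IC50 derived.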

First: COc1cncc(-c2ccccc2C2CC(=O)c3c(C)nc(N)nc3C2)c1 (stereo not drawn) [Compound 73, 2-amino-7-[2-(5-methoxypyridin-3-yl)phenyl]-4-methyl-7,8-dihydroquinazolin-5(6H)-one]
Second: COc1cccc(-c2ccccc2C2CC(=O)c3c(C)nc(N)nc3C2)n1 (stereo not drawn) [Compound 124, 2-amino-7-[2-(6-methoxypyridin-2-yl)phenyl]-4-methyl-7,8-dihydroquinazolin-5(6H)-one]
The IC50 of the first is higher: 1000 to 10000 nM for the first, less than 1000 nM for the second. The second is the more potent here.

First: Cc1nc(N)nc2c1C(=O)CC(c1c(O)cccc1Cl)C2 (stereo not drawn) [Compound 168, 2-Amino-7-(2-chloro-6-hydroxy-phenyl)-4-methyl-7,8-dihydro-6H-quinazolin-5-one]
Second: COc1cccc(Cl)c1C1CC(=O)c2c(C)nc(N)nc2C1 (stereo not drawn) [Compound 5, 2-amino-7-(2-chloro-6-methoxy-phenyl)-4-methyl-7,8-dihydro-6H-quinazolin-5-one]
The IC50 of the first is higher: greater than 10000 nM for the first, 1000 to 10000 nM for the second.

First: CC(=O)Nc1ccccc1-c1ccccc1C1CC(=O)c2c(C)nc(N)nc2C1 (stereo not drawn) [Compound 103, N-[2′-(2-amino-4-methyl-5-oxo-5,6,7,8-tetrahydroquinazolin-7-yl)-1,1′-biphenyl-2-yl]acetamide]
Second: Cc1nc(N)nc2c1C(=O)CC(c1ccccc1-c1ccccc1C(F)(F)F)C2 (stereo not drawn) [Compound 109, 2-amino-4-methyl-7-[2′-(trifluoromethyl)-1,1′-biphenyl-2-yl]-7,8-dihydroquinazolin-5(6H)-one]
The IC50 of the first is higher: 1000 to 10000 nM for the first, less than 1000 nM for the second. The second is the more potent here.

`Cc1nc(N)nc2c1C(=O)CC(c1ccccc1Oc1cccc(F)c1)C2` (stereo not drawn) [Compound 137, 2-amino-7-[2-(3-fluorophenoxy)phenyl]-4-methyl-7,8-dihydroquinazolin-5(6H)-one] and `Cc1nc(N)nc2c1C(=O)CC(c1ccccc1-c1ccc(F)cn1)C2` (stereo not drawn) [Compound 123, 2-amino-7-[2-(5-fluoropyridin-2-yl)phenyl]-4-methyl-7,8-dihydroquinazolin-5(6H)-one] cannot be ordered by IC50: less than 1000 nM for the first, less than 1000 nM for the second.

`Cc1nc(N)nc2c1C(=O)CC(c1c(OCCN3CCOCC3)cccc1-c1cccnc1F)C2` (stereo not drawn) [Compound 157, 2-amino-7-[2-(2-fluoro-pyridin-3-yl)-6-(2-morpholin-4-yl-ethoxy)-phenyl]-4-methyl-7,8-dihydro-6H-quinazolin-5-one] and `Cc1nc(N)nc2c1C(=O)CC(c1c(OCCN3CCN(C)CC3)cccc1-c1cccnc1F)C2` (stereo not drawn) [Compound 158, 2-amino-7-{2-(2-fluoro-pyridin-3-yl)-6-[2-(4-methyl-piperazin-1-yl)-ethoxy]-phenyl}-4-methyl-7,8-dihydro-6H-quinazolin-5-one] cannot be ordered by IC50: less than 1000 nM for the first, less than 1000 nM for the second.

Compared with `COC(=O)c1ccccc1C1CC(=O)c2c(C)nc(N)nc2C1` (stereo not drawn) [Compound 165, methyl 2-(2-amino-4-methyl-5-oxo-5,6,7,8-tetrahydroquinazolin-7-yl)benzoate], `Cc1nc(N)nc2c1C(=O)CC(c1ccccc1Br)C2` (stereo not drawn) [Compound 8, 2-amino-7-(2-bromophenyl)-4-methyl-7,8-dihydroquinazolin-5(6H)-one] is higher in IC50: less than 1000 nM for the first, 1000 to 10000 nM for the second. The first is the more potent here.

First: Cc1cccc(C2CC(=O)c3c(C)nc(N)nc3C2)c1-c1cccnc1F (stereo not drawn) [Compound 19, 2-amino-7-[2-(2-fluoropyridin-3-yl)-3-methylphenyl]-4-methyl-7,8-dihydroquinazolin-5(6H)-one]
Second: Cc1nc(N)nc2c1C(=O)CC(c1ccccc1-c1cccc(N(C)C)c1)C2 (stereo not drawn) [Compound 93, 2-amino-7-[3′-(dimethylamino)-1,1′-biphenyl-2-yl]-4-methyl-7,8-dihydroquinazolin-5(6H)-one]
The IC50 of the first is lower: 1000 to 10000 nM for the first, greater than 10000 nM for the second. The first is the more potent here.

Compared with `Cc1nc(N)nc2c1C(=O)CC(c1ccc(Cl)cc1Cl)C2` (stereo not drawn) [Compound 6, 2-amino-7-(2,4-dichlorophenyl)-4-methyl-7,8-dihydroquinazolin-5(6H)-one], `Cc1nc(N)nc2c1C(=O)CC(c1ccc(F)cc1-c1cccc(F)n1)C2` (stereo not drawn) [Compound 89, 2-amino-7-[4-fluoro-2-(6-fluoro-pyridin-2-yl)-phenyl]-4-methyl-7,8-dihydro-6H-quinazolin-5-one] is lower in IC50: 1000 to 10000 nM for the first, less than 1000 nM for the second.

`Cc1nc(N)nc2c1C(=O)CC(c1ccccc1Oc1cnccn1)C2` (stereo not drawn) [Compound 143, 2-amino-4-methyl-7-[2-(pyrazin-2-yloxy)phenyl]-7,8-dihydroquinazolin-5(6H)-one] and `Cc1nc(N)nc2c1C(=O)CC(c1ccccc1N1CCOCC1)C2` (stereo not drawn) [Compound 13, 2-amino-4-methyl-7-(2-morpholin-4-yl-phenyl)-7,8-dihydro-6H-quinazolin-5-one] cannot be ordered by IC50: less than 1000 nM for the first, less than 1000 nM for the second.

Same assay, conditions: Table II; read-out: Hsp90 IC50 Range

`CCOc1cncc(-c2cc(F)ccc2[C@@H]2CC(=O)c3c(C)nc(N)nc3C2)n1` [Compound 336, (S)-2-amino-7-[2-(6-ethoxy-pyrazin-2-yl)-4-fluoro-phenyl]-4-methyl-7,8-dihydro-6H-quinazolin-5-one] and `COc1nc(-c2cc(F)ccc2C2CC(=O)c3c(C)nc(N)nc3C2)cnc1F` (stereo not drawn) [Compound 233, 2-amino-7-[4-fluoro-2-(5-fluoro-6-methoxy-pyrazin-2-yl)-phenyl]-4-methyl-7,8-dihydro-6H-quinazolin-5-one] cannot be ordered by IC50: less than 1000 nM for the first, less than 1000 nM for the second.

First: COc1nc(Cl)ncc1-c1cc(F)ccc1C1CC(=O)c2c(C)nc(N)nc2C1 (stereo not drawn) [Compound 273, 2-amino-7-[2-(2-chloro-4-methoxy-pyrimidin-5-yl)-4-fluoro-phenyl]-4-methyl-7,8-dihydro-6H-quinazolin-5-one]
Second: Cc1cnc(C)c(-c2cc(F)ccc2C2CC(=O)c3c(C)nc(N)nc3C2)n1 (stereo not drawn) [Compound 227, 2-amino-7-[2-(3,6-dimethyl-pyrazin-2-yl)-4-fluoro-phenyl]-4-methyl-7,8-dihydro-6H-quinazolin-5-one]
The IC50 of the first is lower: less than 1000 nM for the first, 1000 to 10000 nM for the second. The first is the more potent here.

`COCc1nc(N)nc2c1C(=O)CC(c1ccccc1)C2` (stereo not drawn) [Compound 211, 2-amino-4-methoxymethyl-7-phenyl-7,8-dihydro-6H-quinazolin-5-one] and `Nc1ncc2c(n1)CC(c1ccccc1Br)CC2=O` (stereo not drawn) [Compound 244, 2-amino-7-(2-bromo-phenyl)-7,8-dihydro-6H-quinazolin-5-one] cannot be ordered by IC50: greater than 10000 nM for the first, greater than 10000 nM for the second.

`COc1cccc(-c2ccccc2C2CC(=O)c3cnc(N)nc3C2)n1` (stereo not drawn) [Compound 246, 2-amino-7-[2-(6-methoxy-pyridin-2-yl)-phenyl]-7,8-dihydro-6H-quinazolin-5-one] and `COc1cccc(-c2scnc2C2CC(=O)c3c(C)nc(N)nc3C2)n1` (stereo not drawn) [Compound 291, 2-amino-7-[5-(6-methoxy-pyridin-2-yl)-thiazol-4-yl]-4-methyl-7,8-dihydro-6H-quinazolin-5-one] cannot be ordered by IC50: less than 1000 nM for the first, less than 1000 nM for the second.

`CCc1c[nH]nc1-n1ccnc1C1CC(=O)c2c(C)nc(N)nc2C1` (stereo not drawn) [Compound 200, 2-amino-7-[1-(4-ethyl-1H-pyrazol-3-yl)-1H-imidazol-2-yl]-4-methyl-7,8-dihydro-6H-quinazolin-5-one] and `COc1ncccc1-n1ccnc1C1CC(=O)c2c(C)nc(N)nc2C1` (stereo not drawn) [Compound 202, 2-amino-7-[1-(2-methoxy-pyridin-3-yl)-1H-imidazol-2-yl]-4-methyl-7,8-dihydro-6H-quinazolin-5-one] cannot be ordered by IC50: less than 1000 nM for the first, less than 1000 nM for the second.

Compared with `Cc1nc(N)nc2c1C(=O)CC(c1ncc[nH]1)C2` (stereo not drawn) [Compound 234, 2-amino-7-(1H-imidazol-2-yl)-4-methyl-7,8-dihydro-6H-quinazolin-5-one], `COc1cc(-n2ccnc2C2CC(=O)c3c(C)nc(N)nc3C2)c(OC)cc1Cl` (stereo not drawn) [Compound 327, 2-amino-7-[1-(4-chloro-2,5-dimethoxy-phenyl)-1H-imidazol-2-yl]-4-methyl-7,8-dihydro-6H-quinazolin-5-one] is lower in IC50: greater than 10000 nM for the first, less than 1000 nM for the second.
